Experimental data: US20240067639A1, “SMALL MOLECULES THAT TARGET THE RNA THAT CAUSES ALS” (EXPANSION THERAPEUTICS, INC., priority 2020, published 2024)
Where two headings read alike, the source gives them in different places.

Experiments:
[1] = target: Biotin-labeled RNA (target RNA); assay: BLI affinity measurement (ForteBio Octet RED384); format: binding; conditions: Table G
[2] = tested on: RAN translation of (G4C2)66-No ATG-GFP in HEK293T cells; assay: Cell-based assay of RAN translation inhibition (GFP/mCherry reporter); conditions: Homo sapiens, HEK-293T, read-out: RANT IC50

| Structure (SMILES) | Kd [1] | IC50 ([2]; Table G, HEK293T) | IC50 [2] |
| --- | --- | --- | --- |
| Cc1c2ccncc2cc2c3cc(Oc4ccncc4)ccc3n(C)c12 [Compound 306, 5,6-dimethyl-9-(pyridin-4-yloxy)-6H-pyrido[4,3-b]carbazole] | 1200 nM | 14000 nM |  |
| Cc1c2ccncc2cc2c3cc(OC[C@H](C)NCC(F)F)ccc3n(C)c12 [Compound 279, (2S)—N-(2,2-difluoroethyl)-1-(5,6-dimethylpyrido[4,3-b]carbazol-9-yl)oxy-propan-2-amine] | 250 nM | 2400 nM |  |
| COC[C@H](C)NC(=O)c1ccc2c(c1)c1cc3cnccc3c(C)c1n2C [Compound 288, (S)—N-(1-methoxypropan-2-yl)-5,6-dimethyl-6H-pyrido[4,3-b]carbazole-9-carboxamide] | 9600 nM | 2000 nM |  |
| Cc1c2ccncc2cc2c3cc(C(=O)NC[C@H](C)O)ccc3n(C)c12 [Compound 287, N-[(2S)-2-hydroxypropyl]-5,6-dimethyl-pyrido[4,3-b]carbazole-9-carboxamide] | 1500 nM | 1400 nM |  |
| Cc1c2ccncc2cc2c3cc(C(=O)NC[C@@H](C)O)ccc3n(C)c12 [Compound 285, (R)—N-(2-hydroxypropyl)-5,6-dimethyl-6H-pyrido[4,3-b]carbazole-9-carboxamide] | 120 nM | 900 nM |  |
| Cc1c2ccnc(C(=O)N[C@H](C)CN(C)C)c2cc2c3ccccc3n(C)c12 [Compound 292, (R)—N-(1-(dimethylamino)propan-2-yl)-5,6-dimethyl-6H-pyrido[4,3-b]carbazole-1-carboxamide] | 5500 nM |  | 13000 nM |
| COc1ccc2c(c1)c1cc3cnccc3c(C)c1n2CCN1CCOCC1 [Compound 320, 4-(2-(9-methoxy-5-methyl-6H-pyrido[4,3-b]carbazol-6-yl)ethyl)morpholine] | 100000 nM |  | 1900 nM |
| c1cc2cc3[nH]c4ccc(OCC5=NCCN5)cc4c3cc2cn1 [Compound 262, 9-((4,5-dihydro-1H-imidazol-2-yl)methoxy)-6H-pyrido[4,3-b]carbazole] | 5200 nM | 6600 nM |  |
| Cc1c2ccncc2cc2c3cc(C(=O)N[C@H](C)CN)ccc3n(C)c12 [Compound 282, N-[(1R)-2-amino-1-methyl-ethyl]-5,6-dimethyl-pyrido[4,3-b] carbazole-9-carboxamide] | 140 nM | 670 nM |  |
| Cc1c2ccncc2cc2c1[nH]c1ccc(OCCN)cc12 [Compound 263, 2-[(5-methyl-6H-pyrido[4,3-b]carbazol-9-yl)oxy]ethanamine] | 610 nM | > 100000 nM |  |

Second part, led by results:

| Kd [1] | Structure (SMILES) | IC50 ([2]; Table G, HEK293T) | IC50 [2] |
| --- | --- | --- | --- |
| 510 nM | Cc1c2ccnc(C(=O)N[C@H](C)CN(C)C)c2cc2c3cc(OCC(N)=O)ccc3n(C)c12 [Compound 270, 9-(2-amino-2-oxo-ethoxy)-N-[(1R)-2-(dimethylamino)-1-methyl-ethyl]-5,6-dimethyl-pyrido[4,3-b]carbazole-1-carboxamide] | 360 nM |  |
| 130 nM | Cc1c2ccnc(C(=O)N[C@H](C)CN(C)C)c2cc2c3cc(OC[C@H](C)N)ccc3n(C)c12 [Compound 271, 9-[(2S)-2-aminopropoxy]-N-[(1R)-2-(dimethylamino)-1-methyl-ethyl]-5,6-dimethyl-pyrido[4,3-b]carbazole-1-carboxamide] | > 100000 nM |  |
| 8700 nM | Cc1c2ccncc2cc2c3cc(OCC[C@H](C)N)ccc3n(C)c12 [Compound 268, (S)-4-((5,6-dimethyl-6H-pyrido[4,3-b]carbazol-9-yl)oxy)butan-2-amine] | 2900 nM |  |
| 970 nM | Cc1c2ccnc(C(=O)N[C@H](C)CN(C)C)c2cc2c3cc(F)ccc3n(C)c12 [Compound 310, (R)—N-(1-(dimethylamino)propan-2-yl)-9-fluoro-5,6-dimethyl-6H-pyrido[4,3-b]carbazole-1-carboxamide] | 38000 nM |  |
| 3800 nM | Cc1c2ccncc2cc2c3cc(C(=O)N[C@@H](C)CO)ccc3n(C)c12 [Compound 291, N-[(1S)-2-hydroxy-1-methyl-ethyl]-5,6-dimethyl-pyrido[4,3-b]carbazole-9-carboxamide] | 1800 nM |  |
